Experimental data as given in US20160045487A1, “COMPOSITIONS AND METHODS FOR TREATING NEUROPATHY” (CHILDEREN'S MEDICAL CENTER CORPORATION, priority 2013, published 2016).

Columns and labels:
RET = target: T1, RET (Homo sapiens, UniProt P07949+P56159); test: RET phosphorylation phospho-tyrosine Western blot in SH-SY5Y cells; type: cell-based
T1 construct: endogenous in cells; host or cells: SH-SY5Y (SH-SY5Y-THpGL3) human neuroblastoma cells
Source text: One goal of these studies was to determine if XIB4035 could be used for treating SFN in humans. Using the Neuro2A (N2A) murine neuroblastoma cell line, Tokugawa et al. (supra) reported XIB4035 as a competitive agonist for the GDNF receptor GFRα1 that activates the RET receptor. Since populations of DRG sensory neurons express different GFRα receptors, thus making them preferentially responsive to the particular ligands, it was important to determine if XIB4035 was specific to GFRα1 or could act on other family members. Since PSPN has no effect on peripheral sensory neurons, the GFRα1, GFRα2, and GFRα3 receptors were the focus of these studies. The SH-SY5Y, a human neuroblastoma cell line expressing mRNA for GFRα1, GFRα2, and GFRα3, was used to perform two cell-based assays; immunoblots measuring RET phosphorylation and a luciferase reporter assay using the tyrosine hydroxylase (TH) promoter. For the latter two paradigms were used, either overnight treatment immediately followed by luciferase activity measurements or 10 minute treatments followed by washout and overnight incubation prior to measurements. GDNF and ARTN induced robust TH-luciferase activity in a dose dependent manner (FIG. 3E). Because the responses to GDNF and ARTN were more robust, these two factors were chosen for further analysis.
Since the original report argued that XIB4035 displaces GDNF binding to GFRα1 expressing cells (FIG. 2 in Tokugawa et al., Neurochem Int 42, 81-86 (2003).), potentially ARTN, on TH-luciferase activity and Ret phosphorylation. […] In this experiment, cells were treated with GDNF or ARTN with or without XIB4035 for 10 minutes and cell lysates were either collected immediately or treatment was washed out and replaced with growth media for 30, 60, or 120 minutes. […] Therefore, we tested cells expressing only one GFRα using either N2A cells (which express RET) transfected with GFRα1 or GFRα3 expression constructs, or B(E)2-C cells, which express only GFRα2 together with RET. […]

GFAP-DN-erbB4 mice = test: PGP9.5-positive IENF density in hind paw skin; type: in vivo, mouse; details: treatment initiated after disease onset (P28), read at P35
Method: However, in the clinic, therapy would almost certainly begin after patients present with symptoms of SFN. Therefore, it was determined whether topical XIB4035 can act as a disease-modifying agent in the GFAP-DN-erbB4 neuropathy model starting after animals are clearly symptomatic (P28). […] While IB4 labeling in mutant mice was lower than wild types regardless of treatment, IB4 signal was clearly present in mutant mice treated with XIB4035 while absent in those treated with control cream (FIG. 3D; 83% of XIB4035 treated mice (n=6) with IB4+ lamina II terminals vs 0% (n=4) in control treated mice) (FIG. 3D).
Mice were anesthetized with 2.5% Avertin. Hind paws were removed, immersion fixed in 2% paraformaldehyde, 14% picric acid in 0.1 M phosphate buffer (pH 7.4) overnight at 4° C., and cryoprotected in 20% sucrose overnight at 4° C. Footpad skin was dissected from hind paws, embedded in OCT, sectioned at 30 μm, and stained as floating sections. […]
Skin section images were acquired as 30 μm Z-stacks (1 μm intervals) and processed as maximum intensity projections using a Zeiss LSM 700 microscope and ZEN software. […] A measured line was drawn using the DAPI channel to delineate the border between basal keratinocytes and outer layers of the epidermis. All PGP9.5 positive IENFs crossing the border were counted and expressed as a number per 100 μm length. […]

[1] = test system: diabetic mice (STZ model); test: Nerve conduction velocity in sciatic nerves of STZ diabetic mice; type: in vivo, mouse; details: cream from hyperglycemia for 16 weeks
Method: To examine NCV, normo-glycemic or diabetic mice (STZ model, as described elsewhere herein) were treated with either vehicle cream or with cream containing XIB4035 from the moment they became hyperglycemic, for 16 weeks. At the end of this period, nerve conduction velocity (NCV) was measured in sciatic nerves.
(§1) Adult female C57 Bl/6J mice were made diabetic (blood glucose >15 mmol/L) by injection of STZ (90 mg/kg i.p.) on two consecutive days, with confirmation of hyperglycemia made 7 days after STZ delivery. Paw thermal response latency of the right paw was measured every two weeks from weeks 8-16 of diabetes using a modified Hargeaves test, as described

[2] = test system: diabetic mice (STZ model); test: Sub-epidermal neural plexus density in papillary dermis of STZ diabetic mice; type: in vivo, mouse; details: cream from hyperglycemia for 16 weeks
Method: To examine SNP, normo-glycemic or diabetic mice (STZ model) were treated with either vehicle cream of cream containing XIB4035 from the moment they became hyperglycemic, for 16 weeks. At the end of this treatment period, the density of sub-epidermal fibers in papillary dermis was measured in papillary dermis. It was thereby identified that sub-epidermal neural plexus (SNP) density was reduced in diabetic mice not administered XIB, but was preserved in diabetic mice that had received XIB4035 treatment (FIG. 10).
as §1

T1 sequence (P07949 29-1114): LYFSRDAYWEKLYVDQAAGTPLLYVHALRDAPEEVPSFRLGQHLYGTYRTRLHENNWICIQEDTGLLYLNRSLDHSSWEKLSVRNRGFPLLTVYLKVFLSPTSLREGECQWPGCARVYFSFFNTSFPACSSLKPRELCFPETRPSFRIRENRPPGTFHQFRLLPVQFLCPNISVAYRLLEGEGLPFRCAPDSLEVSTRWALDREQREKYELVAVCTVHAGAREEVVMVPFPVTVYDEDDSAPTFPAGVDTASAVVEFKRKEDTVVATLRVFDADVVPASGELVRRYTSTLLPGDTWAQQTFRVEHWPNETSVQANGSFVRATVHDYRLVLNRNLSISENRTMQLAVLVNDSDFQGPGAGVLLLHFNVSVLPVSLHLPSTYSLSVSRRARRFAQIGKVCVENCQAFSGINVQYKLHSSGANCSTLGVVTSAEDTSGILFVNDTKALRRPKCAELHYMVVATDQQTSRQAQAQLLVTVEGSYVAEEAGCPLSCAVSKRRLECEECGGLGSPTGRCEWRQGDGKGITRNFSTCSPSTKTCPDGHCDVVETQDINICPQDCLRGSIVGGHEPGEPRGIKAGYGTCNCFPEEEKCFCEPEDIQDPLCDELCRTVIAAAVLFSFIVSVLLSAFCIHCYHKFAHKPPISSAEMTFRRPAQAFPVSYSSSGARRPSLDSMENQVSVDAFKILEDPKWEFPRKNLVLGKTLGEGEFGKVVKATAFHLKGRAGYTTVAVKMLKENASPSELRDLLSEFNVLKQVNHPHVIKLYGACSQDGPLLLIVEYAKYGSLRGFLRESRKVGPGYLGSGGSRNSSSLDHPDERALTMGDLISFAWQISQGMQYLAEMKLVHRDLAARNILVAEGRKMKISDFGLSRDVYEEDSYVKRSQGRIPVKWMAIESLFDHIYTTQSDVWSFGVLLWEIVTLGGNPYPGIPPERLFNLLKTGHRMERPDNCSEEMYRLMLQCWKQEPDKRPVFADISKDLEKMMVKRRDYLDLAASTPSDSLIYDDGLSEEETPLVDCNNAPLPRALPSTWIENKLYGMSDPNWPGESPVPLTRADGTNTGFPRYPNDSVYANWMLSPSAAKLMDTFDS
T1 sequence (P56159 25-429 limits assumed): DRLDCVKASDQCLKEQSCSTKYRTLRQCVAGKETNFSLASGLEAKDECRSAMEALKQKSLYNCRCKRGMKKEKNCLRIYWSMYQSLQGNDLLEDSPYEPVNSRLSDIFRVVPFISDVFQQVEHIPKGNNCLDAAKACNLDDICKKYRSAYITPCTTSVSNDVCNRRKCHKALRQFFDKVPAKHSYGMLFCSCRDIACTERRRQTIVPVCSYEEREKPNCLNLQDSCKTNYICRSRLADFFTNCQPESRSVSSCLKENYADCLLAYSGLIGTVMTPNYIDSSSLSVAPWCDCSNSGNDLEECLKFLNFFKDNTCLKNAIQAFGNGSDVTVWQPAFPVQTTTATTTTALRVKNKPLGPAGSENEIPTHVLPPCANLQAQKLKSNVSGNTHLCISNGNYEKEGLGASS

With `CCN(CC)CCCC(C)Nc1cc(/C=C/c2ccccc2Cl)nc2cc(Cl)ccc12` (centres unmarked) [XIB4035, N4-{7-chloro-2-[(E)-2-(2-chloro-phenyl)-vinyl]-quinolin-4-yl}-N1,N1-diethyl-pentane-1,4-diamine] the “duration of ligand-induced RET phosphorylation after washout” value (RET; 20 μM XIB4035 with 2 nM GDNF or 1 nM ARTN, 10 minutes treatment) was “at least 120 minutes”, the “induction of RET phosphorylation” value (RET; XIB4035 alone, various concentrations, two or 10 minutes) was “failed to induce RET phosphorylation” and the “IENF density in hind paw skin” value (GFAP-DN-erbB4 mice) was “did not rescue IENF density”. The “nerve conduction velocity (NCV) in sciatic nerves” value [1] was “not statistically different from that observed in control animals” and the “sub-epidermal neural plexus (SNP) density” value [2] was “preserved”.
